Assay results published in patent US20260216138A1, “IDENTIFICATION OF OTUD7B INHIBITOR 7BI AND ITS APPLICATION IN REDUCING GROWTH OF NSCLC AND LEUKEMIA CELLS” (The University of North Carolina at Chapel Hill, priority 2023, published 2026).

What was measured:
Akt-pS473 [1] = experiment: Akt-pS473 immunoblot in HEK293 cells; type: cell-based
Protocol: Cells were harvested and lysed in EBC buffer (50 mM Tris pH 7.5, 120 mM NaCl, 0.5% NP-40) supplemented with protease inhibitor cocktail (EDTA-free, mini-tablet) (Bimake) and phosphatase inhibitor cocktail (Bimake) by rotating in the cold room for 10 min followed by high-speed centrifugation at 4° C. The protein concentrations in supernatants of whole cell lysates were measured by NanoDrop OneC using the Bio-Rad Bradford protein assay reagent. Equal amounts of whole cell lysates were resolved on SDS-PAGE and immunoblotted with indicated antibodies. For immunoprecipitation analysis, 1 mg of total cell lysate was incubated with the indicated beads for 3-4 hr at 4° C. The recovered immuno-complexes were washed thoroughly three times with NETN buffer (20 mM Tris, pH 8.0, 100 mM NaCl, 1 mM EDTA and 0.5% NP-40) before being resuspended in SDS sample buffer and resolved on SDS-PAGE and immunoblotted with indicated antibodies. […]

Akt-pS473 [2] = experiment: Akt-pS473 western blotting in NSCLC cells (A549, H358, H520, H1299); type: cell-based
Protocol: Cells were harvested and lysed in EBC buffer (50 mM Tris pH 7.5, 120 mM NaCl, 0.5% NP-40) supplemented with protease inhibitor cocktail (EDTA-free, mini-tablet) (Bimake) and phosphatase inhibitor cocktail (Bimake) by rotating in the cold room for 10 min followed by high-speed centrifugation at 4° C. The protein concentrations in supernatants of whole cell lysates were measured by NanoDrop OneC using the Bio-Rad Bradford protein assay reagent. Equal amounts of whole cell lysates were resolved on SDS-PAGE and immunoblotted with indicated antibodies. For immunoprecipitation analysis, 1 mg of total cell lysate was incubated with the indicated beads for 3-4 hr at 4° C. The recovered immuno-complexes were washed thoroughly three times with NETN buffer (20 mM Tris, pH 8.0, 100 mM NaCl, 1 mM EDTA and 0.5% NP-40) before being resuspended in SDS sample buffer and resolved on SDS-PAGE and immunoblotted with indicated antibodies.
Next, we used two approaches to search for possible OTUD7B inhibitors by monitoring Akt-pS473 changes including Akt-pS473 ELISA and western blotting in A549 cells treated with each of these 59 small molecules for 16 hrs at a concentration of 10 uM (FIG. 1A). In Akt-pS473 ELISA assays using Torin 2 (a pan-mTOR inhibitor) as a positive control and DMSO as a negative control (FIG. 1E), we found 15 compounds with an inhibitory ability above 30% (FIG. 1F). […]

OTUD7B = target: T1, OTUD7B (Homo sapiens, UniProt Q6GQQ9); experiment: Ubiquitin-AMC assay, OTUD7B; type: biochemical; conditions: 50 μM 7Bi, 300 nM OTUD7B, 2 uM ubiquitin-AMC
T1 construct: OTUD7B (residues 56-446); GST (N, cleaved yes); made in house; host or cells: E. coli BL21-Codon Plus (DE3)-RIL
T1 sequence (Q6GQQ9 56-446): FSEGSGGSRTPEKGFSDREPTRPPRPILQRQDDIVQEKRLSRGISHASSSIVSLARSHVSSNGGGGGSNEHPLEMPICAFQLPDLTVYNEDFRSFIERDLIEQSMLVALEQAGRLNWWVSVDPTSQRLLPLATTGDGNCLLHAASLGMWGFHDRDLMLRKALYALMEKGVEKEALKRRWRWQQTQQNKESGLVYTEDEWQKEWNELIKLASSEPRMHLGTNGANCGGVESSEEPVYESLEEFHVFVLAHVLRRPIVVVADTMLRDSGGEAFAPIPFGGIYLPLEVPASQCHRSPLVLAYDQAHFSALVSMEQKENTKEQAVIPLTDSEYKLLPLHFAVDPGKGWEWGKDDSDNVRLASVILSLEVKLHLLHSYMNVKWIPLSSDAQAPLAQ
Protocol: 50 μM 7Bi were incubated with 300 nM OTUD7B (residues 56-446), 10 μM OTUD7A (residues 1-462), 200 nM USP21 (residues 196-565), or 500 nM USP9X (residues 1551-1970) in reaction buffer (20 mM HEPES pH=8.0, 200 mM NaCl, 0.25 mg/mL BSA and 0.005% Tween-20) for 5 min at room temperature. Then, 2 uM ubiquitin-AMC was added to start the reaction. The fluorescence emission data was collected at an excitation wavelength of 355 nm and emission wavelength of 460 nm every 3 min. Reactions were completed three times to generate the error bars.

With `Cc1cc(NC(=O)c2cnn(C)c2C(=O)Nc2cc(C)nn2C2CCCC2)n(C2CCCC2)n1` [7Bi] the “downregulation of Akt-pS473 signals by purified 7Bi” value (Akt-pS473 [1]; HPLC purified 7Bi (~99% purity) compared with 90% purity) was “retained its ability”, the “suppression of Akt-pS473” value (Akt-pS473 [1]; indicated doses, 16 hrs) was “efficiently suppressed Akt-pS473” and the “suppressing Akt-pS473 signal in at least 3 out of 4 NSCLC lines tested” value (Akt-pS473 [2]; A549, H358, H520, H1299, 10 uM for 16 hrs, dose- and time-dependent) was “showed effects in suppressing Akt-pS473 signal”. For the same molecule, the IC50 (Akt-pS473 [2]; NSCLC cells, read-out: IC50 values to inhibit Akt-pS473 signals) was 1 to 10 µM and the “inhibition of hydrolysis of ubiquitin-AMC by OTUD7B” value (OTUD7B) was “efficiently inhibited hydrolysis of ubiquitin-AMC”.
